Data set [1] concerns glioma cells. The data set can be described thus: Invasion assay at 24 hours, encapsulated versus free drug. In kind it is cell-based. How it is done: FIG. 4 is a chart showing the results of an invasion assay at 24 hours, showing invasion (%) over time (24 hours).
An invasion assay was performed at 24 hours. The encapsulated formulation was compared to tree drug in vitro and was still active as an anti-invasive agent. Encapsulation of the compound in liposomes is reproducible and consistent between batched.

Data set [2] in a line: Pharmacokinetics of free versus liposomal IB (Example 3). It is filed as in vivo. The settings on record: rat, tail vein, 20 mg/kg, Cremaphor formulation. How it is done: FIG. 5 is a chart showing the pharmacokinetics of free versus encapsulated imipramine blue, in terms of plasma concentration (mg/ml) over time (hours).
Animals were injected via tail vein with 20 mg/kg liposomal or free IB. Orbital blood draws were performed at intervals and blood collected, centrifuged, and serum read at 610 nm absorbance for pharmacokinetics. […] For biodistribution, animals were perfused with saline, organs collected, homogenized, and drug extracted with DMSO and read at 610 nm absorbance.
The circulation time of the free imipramine blue was tested in a Cremaphor formulation similar to that of paclitaxel.

The subject of data set [3] is astrocytes. The data set can be described thus: Viability against astrocyte cultures using CCK8. In kind it is cell-based. As to conditions: CCK8, 5 μg/ml. As to the method: (§1) FIG. 1a is a bar graph showing the effects of IB on cell growth in vitro, in terms of normalized cell viability.
(§2) An aggressive rat astrocytoma cell line, RT2, was maintained in vitro. This cell line was used to test 24 compounds at varying concentrations in cytotoxicity and proliferation assays using CCK8 (Dojindo), a tetrazolium salt based assay. Compounds without detrimental effects on viability and growth were tested using the Boyden chamber invasion assay at 48 hours. Compounds were also tested for viability against astrocyte cultures using CCK8. Of these compounds, several were identified as anti-invasive. However, several compounds were toxic to astrocytes in culture and several were cytotoxic and not in fact anti-invasive.

Data set [4] has as its system RT2 rat astrocytoma cell line. The data set can be described thus: Cytotoxicity and proliferation assays using CCK8. It is filed as cell-based. As to the method: as §1, §2
Data set [5] concerns RT2 rat astrocytoma cell line. The data set can be described thus: Boyden chamber invasion assay at 48 hours. It is filed as cell-based. The settings on record: RT2 cells, 0.01-5 μg/ml. As to the method: FIG. 1b is a bar graph showing the dose dependent effects of IB on invasion using a Boyden Chamber Assay. […] At concentrations above 20 μg/ml, IB was cytotoxic to cancer, and not just anti-invasive.
as §2
It also is benign to astrocyte co-culture making it safer for delivery to the brain (FIG. 3a). The compound is blue in color with an absorbance at 610 nm making it easily assayable. […] At concentrations above 20 μg/ml, IB was cytotoxic to cancer and not just anti-invasive.

Data set [6] has as its system HIF2a. The settings on record: WM35 PKB cells, 5 micromolar, 24 hours; cited from earlier work.
Data set [7] relates to RT2 glioma cells. Nature of the data set: Actin staining of IB-treated glioma cells. It is filed as cell-based, rat. As to conditions: 24 hours, versus ethanol. As to the method:
FIGS. 9A and 9B are photomicrographs showing the results of in vitro treatment of RT2 glioma cells with IB. Cells were treated with ethanol […] or IB […] and stained for actin (red) and nuclei (blue).
The ability of IB to impact invasion capability of glioma cells was tested further in vitro. Cells were treated for 24 hours with either IB dissolved in ethanol or an equivalent volume of ethanol.

The nature of data set [8]: Plasma clearance of free IB versus Nano-IB (Example 6). In kind it is in vivo, rat. The settings on record: non tumor-bearing adult male rats, tail vein, readings over 1 hour.
Procedure: Imipramine Blue liposomes were injected via the tail vein into adult male rats (non tumor-bearing). Blood samples were taken via the orbital cavity at different time points after drug administration, plasma separated and analyzed for IB content via absorbance readings on spectrophotometer.

“Also recorded” adds a separate entry of the source.

For the compound `CCN(CC)c1ccc(C(c2ccc(N(CC)CC)cc2)=c2ccc3c(c2)CCc2ccccc2[N+]=3CCCN(C)C)cc1` [IB, Imipramine Blue], the “invasion relative to control (100 percent)” value in data set [1] is reported as “around 60%”. Moreover, the “half-life of free IB” value in data set [2] is 11 min; in data set [2] (listed as free imipramine blue), “around 11 minutes”; in data set [8] it was 12 min. In data set [3], the “effect on astrocyte culture” value is listed as “benign”. Moreover, the “concentration at which IB is cytotoxic to cancer” value in data set [4] is given as “above 20 μg/ml”. In addition, in data set [4] (CCK8), the “proliferation of RT2 cells” value is “not antiproliferative; also recorded: not particularly cytotoxic or anti-proliferative”. For the same compound, the “cytotoxicity to RT2 cells” value in data set [4] (CCK8, at anti-invasive concentrations) was “not particularly cytotoxic”. Besides, in data set [5], the anti-invasive effect result is recorded as “highest anti-invasive properties; also recorded: dose-dependent anti-invasive response”. Further, the “inhibition of HIF2a expression” value in data set [6] was “around 90%”. In addition, the effect on cytoskeleton entry in data set [7] is on record as “alters the arrangement of the cytoskeleton”.

The record behind these values is patent US9220682B2, “Nanocarrier therapy for treating invasive tumors” (Emory University, priority 2009, dated 2015).
